Measured values reported in patent US7541364B2, “Pyridomorphinans, pyridazinomorphinans and use thereof” (priority 2003, dated 2009).
Like-named read-outs stand apart in the source and are kept apart here.

Key:
[1] = biological target: T1, opioid δ receptor (Rattus norvegicus, UniProt P33533); experiment: Opioid δ receptor binding, [3H]DADLE displacement in rat brain membranes; settings: displacement of [3H]DADLE (1.3-2.0 nM), rat brain membranes, 100 nM DAMGO to block μ sites; read-out: Ki (nM) ± SEM δ
T1 construct: Rat membranes are prepared each day using a partially thawed frozen rat brain; from tissue; host or cells: rat brain membranes
T1 sequence (P33533 whole entry): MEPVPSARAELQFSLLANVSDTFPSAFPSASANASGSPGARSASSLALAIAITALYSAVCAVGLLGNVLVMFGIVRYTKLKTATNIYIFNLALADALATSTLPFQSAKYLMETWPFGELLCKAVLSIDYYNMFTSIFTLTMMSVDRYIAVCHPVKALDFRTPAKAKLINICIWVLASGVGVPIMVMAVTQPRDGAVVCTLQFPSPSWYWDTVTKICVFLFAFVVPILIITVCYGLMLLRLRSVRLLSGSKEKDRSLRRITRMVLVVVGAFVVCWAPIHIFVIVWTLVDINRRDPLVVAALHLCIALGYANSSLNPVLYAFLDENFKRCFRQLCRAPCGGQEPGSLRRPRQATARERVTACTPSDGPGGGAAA

[2] = biological target: T2, δ receptor (mouse vas deferens) (Mus musculus, UniProt P32300); experiment: Mouse vas deferens (MVD) smooth muscle bioassay; settings: inhibition of electrically stimulated contractions; read-out: agonist activity MVD (δ) IC50
T2 sequence (P32300 whole entry): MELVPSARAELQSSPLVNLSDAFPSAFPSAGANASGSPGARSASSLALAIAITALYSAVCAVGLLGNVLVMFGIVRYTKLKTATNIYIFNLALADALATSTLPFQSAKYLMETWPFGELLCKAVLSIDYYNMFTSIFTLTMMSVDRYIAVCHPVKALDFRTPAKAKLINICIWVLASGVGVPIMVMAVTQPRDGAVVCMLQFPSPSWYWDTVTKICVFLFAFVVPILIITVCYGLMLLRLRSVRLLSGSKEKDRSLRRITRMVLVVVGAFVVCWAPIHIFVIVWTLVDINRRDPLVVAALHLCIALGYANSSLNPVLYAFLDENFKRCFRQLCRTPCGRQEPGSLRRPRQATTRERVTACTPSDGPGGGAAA
Protocol: (§1) Bioassays in Smooth Muscle Preparations. The functional activity profiles of selected ligands are also determined in the mouse vas deferens (MVD) and guinea pig ileum (GPI) smooth muscle preparations as described previously.
(§2) The agonist activity is determined by the ability of the compound to inhibit electrically stimulated contractions of the GPI and MVD. The GPI is primarily a μ receptor preparation, even though the ileum does also contain κ receptors. In the MVD, the opioid effects are predominantly mediated through δ receptors, but μ and κ receptors also exist in this tissue.
(§3) Tissues came from male ICR mice weighing 25-40 g and male Hartley guinea pigs weighing 250-500 g. The tissues are tied to gold chain with suture silk, suspended in 20 mL baths containing 37° C. oxygenated (95% O2, 5% CO2) Krebs bicarbonate solution (magnesium free for the MVD), and allowed to equilibrate for 15 min. The tissues are then stretched to optimal length previously determined to be 1 g tension (0.5 g for MVD) and allowed to equilibrate for 15 min. The tissues are stimulated transmurally between platinum wire electrodes at 0.1 Hz, 0.4 ms pulses (2-ms pulses for MVD), and supramaximal voltage. […] Tissues not producing typical results are not used. Experimental compounds were added to the baths in 14-60 μL volumes. Succeeding doses of agonist are added cumulatively to the bath at 3 min intervals to produce a concentration-response curve. The tissues are then washed extensively with fresh buffer until the original contraction height is reestablished. […] The tissues are then washed with fresh buffer for 30 min, and the agonist dose-response curve was repeated. Rightward shifts in the dose-response curves are calculated by dividing the antagonized dose-response curve IC50 value by the unantagonized IC50 value. IC50 values represent the mean of two to four tissues. IC50 estimates and their associated standard errors are determined by using a computerized nonlinear least-squares method. (MINSQ Least Squares Parameter Estimation, version 3.05; MicroMath Inc., 1999.)

[3] = system: mice; experiment: 55° C. tail-flick antinociception test in mice; settings: for naloxone sensitivity: naloxone 10 mg/kg ip, -10 min, yes = greater than 80% reduction in the antinociceptive effect
Protocol: Analgesic Testing and Assessment of Tolerance Development. The analgesic activity of selected ligands is tested in mice using the 55° C. tail-flick test as previously described. (See Wells et al., supra.) The test compounds are administered by the intracerbroventricular (icv) route. […] To determine whether the analgesic activity of the tested compounds is mediated through opioid receptors, the blockade of antinociceptive activity by pretreatment with naloxone is carried out. The analgesic activity was considered as naloxone sensitive if greater than 80% reduction in the antinociceptive response is observed.
Antinociceptive Studies. Male ICR mice (Harlan) are used for all evaluations. Mice are housed in a temperature and humidity controlled vivarium on a 12:12 h light:dark cycle with unlimited access to food and water prior to the formal procedures. […] The dihydrochloride salt of 7h is dissolved in water and injected in a volume of 5 μL. All other compounds are dissolved in 100% DMSO and injected in a volume of 5 μL. Antinociceptive assays are performed at various times after injection.
Percent antinociception is calculated using the formula: % MPE (maximal possible effect)=100×(test−control)/(cutoff−control) where control is the predrug observation, test is the postdrug observation, and cutoff is the maximal length of stimulus allowed (10 s for 55° C. tail-flick). Antinociceptive A50 values and 95% confidence intervals are determined using linear regression software (FlashCalc). Opioid activity of the test compounds are assessed by pretreating animals with naloxone (10 mg/kg ip, −10 min) followed by an icv injection of an approximate A90 dose of test compound. […] Antinociception is assessed in the 55° C. tail-flick test at 10, 20 and 30 min. A positive response to a fixed dose of naloxone is indicated when greater than 80% reduction in the antinociceptive effect of the agonist is observed.

[4] = biological target: T3, opioid μ receptor (Rattus norvegicus, UniProt P33535); settings: for selectivity ratio μ/δ: ratio of binding Ki values; for Ki: read-out: Ki (nM) ± SEM μ, displacement of [3H]DAMGO (1.4-3.0 nM), rat brain membranes
T3 sequence (P33535 whole entry): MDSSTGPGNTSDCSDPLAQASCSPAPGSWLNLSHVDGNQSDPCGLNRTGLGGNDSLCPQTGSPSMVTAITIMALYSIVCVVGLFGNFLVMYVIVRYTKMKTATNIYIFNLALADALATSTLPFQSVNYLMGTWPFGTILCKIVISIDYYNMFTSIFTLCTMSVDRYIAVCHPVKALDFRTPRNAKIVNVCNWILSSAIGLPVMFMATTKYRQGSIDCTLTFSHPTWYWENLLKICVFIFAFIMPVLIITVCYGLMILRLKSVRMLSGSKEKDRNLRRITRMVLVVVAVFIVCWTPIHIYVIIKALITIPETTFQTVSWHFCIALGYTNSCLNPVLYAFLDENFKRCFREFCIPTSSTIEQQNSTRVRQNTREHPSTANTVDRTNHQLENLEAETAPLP

[5] = biological target: T4, opioid κ receptor (Cavia porcellus, UniProt P41144); settings: for selectivity ratio κ/δ: ratio of binding Ki values; for Ki: read-out: Ki (nM) ± SEM κ, displacement of [3H]U69,593 (1.2-[…]), guinea pig brain membranes
T4 sequence (P41144 whole entry): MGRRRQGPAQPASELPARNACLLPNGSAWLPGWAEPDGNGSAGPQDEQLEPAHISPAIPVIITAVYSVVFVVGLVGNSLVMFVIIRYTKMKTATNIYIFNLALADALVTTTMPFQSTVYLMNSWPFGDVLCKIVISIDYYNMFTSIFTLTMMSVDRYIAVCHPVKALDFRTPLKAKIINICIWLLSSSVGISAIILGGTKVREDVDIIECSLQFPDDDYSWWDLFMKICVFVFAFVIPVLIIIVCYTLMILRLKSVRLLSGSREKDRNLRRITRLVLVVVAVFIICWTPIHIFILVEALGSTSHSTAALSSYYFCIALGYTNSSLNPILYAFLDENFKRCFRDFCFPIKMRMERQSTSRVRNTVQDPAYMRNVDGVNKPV

[6] = biological target: T5, κ receptor (Cavia porcellus, UniProt P41144); settings: for Ki: read-out: antagonist activity apparent Ki (nM ± SD) κ
T5 sequence (P41144 whole entry): as above

[7] = biological target: T6, δ receptor (Cavia porcellus, UniProt A0A286XTF2); experiment: biochemical
T6 sequence (A0A286XTF2 1-366): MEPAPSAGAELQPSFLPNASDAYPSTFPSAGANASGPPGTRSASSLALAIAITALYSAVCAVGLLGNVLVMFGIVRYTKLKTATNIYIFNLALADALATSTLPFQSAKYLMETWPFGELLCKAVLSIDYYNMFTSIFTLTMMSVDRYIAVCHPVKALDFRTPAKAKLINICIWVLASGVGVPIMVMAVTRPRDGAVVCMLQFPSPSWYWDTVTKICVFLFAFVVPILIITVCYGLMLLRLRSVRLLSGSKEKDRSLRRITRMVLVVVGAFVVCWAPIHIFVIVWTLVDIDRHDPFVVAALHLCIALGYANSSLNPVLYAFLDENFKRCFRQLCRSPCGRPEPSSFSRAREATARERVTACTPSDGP

[8] = biological target: T7, μ receptor (Cavia porcellus, UniProt A0ACM8Q262); experiment: biochemical; settings: read-out: agonist activity Emax % μ
T7 sequence (A0ACM8Q262 1-400): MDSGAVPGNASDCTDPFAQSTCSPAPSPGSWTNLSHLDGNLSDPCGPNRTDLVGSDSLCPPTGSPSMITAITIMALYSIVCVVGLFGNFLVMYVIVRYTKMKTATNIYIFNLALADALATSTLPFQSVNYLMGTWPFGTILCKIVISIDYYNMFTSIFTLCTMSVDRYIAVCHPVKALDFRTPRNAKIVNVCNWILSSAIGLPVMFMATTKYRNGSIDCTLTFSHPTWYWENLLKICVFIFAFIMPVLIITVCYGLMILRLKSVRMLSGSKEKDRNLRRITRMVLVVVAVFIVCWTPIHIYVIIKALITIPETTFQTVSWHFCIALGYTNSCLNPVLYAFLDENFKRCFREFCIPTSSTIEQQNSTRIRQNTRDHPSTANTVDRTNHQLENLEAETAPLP

[9] = system: mice; experiment: Tolerance regimen, repeated icv injections, tail-flick assay; settings: A90 doses icv twice daily for 3 days, tail-flick on day 4; FIG. 4
Text: Tolerance Regimen. […] Antinociceptive dose-response curves in the tail-flick assay are generated on the morning of the fourth day using the procedures outlined above.

[10] = biological target: T2, δ receptor (mouse vas deferens); experiment: Mouse vas deferens (MVD) smooth muscle bioassay; design: from tissue; host or cells: mouse vas deferens (male ICR mice)
Protocol: as §1, §2, §3

[11] = biological target: T2, δ receptor (mouse vas deferens); settings: percentage inhibition of contraction at 1 μM; data from Ananthan et al. (I); cited from earlier work
[12] = biological target: μ receptor (guinea pig ileum) (Cavia porcellus, UniProt A0ACM8Q262); settings: data from Ananthan et al. (I), cited from earlier work; for antagonist activity GPI (μ) Ke: PL-017 as agonist; for agonist activity GPI (μ) % max resp: percentage inhibition of contraction at 1 μM
μ receptor (guinea pig ileum), sequence (A0ACM8Q262 1-400): as above

[13] = biological target: T3, opioid μ receptor; settings: data from Ananthan et al. (I), cited from earlier work
[14] = biological target: T4, opioid κ receptor; settings: data from Ananthan et al. (I), cited from earlier work
[15] = biological target: T2, δ receptor (mouse vas deferens); design: from tissue; host or cells: mouse vas deferens (male ICR mice); settings: DPDPE as agonist; data from Ananthan et al. (I); cited from earlier work
[16] = biological target: T6, δ receptor; settings: δ receptors, partial inhibition with increasing concentrations
[17] = biological target: T7, μ receptor; settings: read-out: antagonist activity apparent Ki (nM ± SD) μ; inhibition of DAMGO (10 μM) stimulated [35S]GTP-γ-S binding
[18] = biological target: T5, κ receptor; experiment: biochemical
[19] = biological target: T1, opioid δ receptor; settings: read-out: Ki (nM) ± SEM δ; [3H]DADLE, rat brain membranes; data from Ananthan et al. (I); cited from earlier work
[20] = biological target: T7, μ receptor; settings: guinea pig caudate membranes; Xu et al.; cited from earlier work
[21] = system: mice; settings: icv or ip administration in mice; Wells et al.; cited from earlier work
[22] = system: mice; settings: icv or ip administration in mice; Wells et al.; cited from earlier work; remark: listed apart in the source
[23] = biological target: human μ receptors (Homo sapiens, UniProt P35372); settings: cloned cells expressing human μ receptors; Xu et al.; cited from earlier work
human μ receptors, sequence (P35372 whole entry): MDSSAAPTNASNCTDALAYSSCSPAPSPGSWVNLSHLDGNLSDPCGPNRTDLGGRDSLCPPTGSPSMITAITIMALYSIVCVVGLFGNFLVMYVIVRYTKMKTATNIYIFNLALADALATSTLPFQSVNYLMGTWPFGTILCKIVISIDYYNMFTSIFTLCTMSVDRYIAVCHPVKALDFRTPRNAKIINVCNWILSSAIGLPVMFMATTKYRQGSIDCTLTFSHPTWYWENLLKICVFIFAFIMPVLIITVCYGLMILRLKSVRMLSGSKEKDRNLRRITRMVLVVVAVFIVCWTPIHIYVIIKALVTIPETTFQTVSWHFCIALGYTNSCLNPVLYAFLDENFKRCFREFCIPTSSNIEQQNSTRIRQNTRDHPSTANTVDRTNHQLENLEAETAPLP

[24] = system: mice; settings: repeated ip injections; Wells et al.; cited from earlier work

Row | SMILES | Ki [1] [nM] | IC50 [2] [nM] | naloxone sensitivity [3] | selectivity ratio μ/δ [4] | Ki [4] [nM] | selectivity ratio κ/δ [5] | Ki [5] [nM] | Ki [6] [nM] | Ki [7] [nM] | Emax [8] [%] | agonist activity MVD (δ) % max resp [11] [%] | antagonist activity GPI (μ) Ke [12] [nM] | agonist activity GPI (μ) % max resp [12] [%] | selectivity ratio μ/δ [13] | selectivity ratio κ/δ [14] | antagonist activity MVD (δ) Ke [15] [nM] | also measured
1 | CN1CC[C@]23c4c5ccc(O)c4O[C@H]2c2ncc(-c4ccc(Cl)cc4)cc2C[C@H]3[C@H]1C5 [7h, 5′-(4-Chlorophenyl)-6,7-didehydro-4,5α-epoxy-3-hydroxy-17-methylpyrido[2′,3′:6,7]morphinan] | 4.4 ± 0.2 | 565 ± 12.7 | yes | 34 | 148 ± 9.5 | 18 | 78 ± 13 | 333 ± 25 | 11 | 48 ± 2 |  |  |  |  |  |  | A50 ([3]; icv, mouse tail-flick, at time of peak drug effect): 42.8 nmol; A50 potency value in the tail flick assay ([3]; mice, full agonist efficacy, FIG. 2): 21.9; blockade of antinociceptive activity by μ selective antagonist β-FNA ([3]; β-FNA 19 nmol, icv, -24 h, FIG. 3): completely blocked; shift in antinociceptive A50 value after repeated injections [9]: less than 1.1 fold; Kb [10]: 21.9 ± 2.14 nM
2 | Oc1ccc2c3c1OC1c4ncccc4CC4(O)C(C2)N(CC2CC2)CCC314 (stereo not shown) [2a] |  |  |  |  |  |  |  |  |  |  | 0 | 190 ± 65 | 0 | 1.9 | 11 | 37.0 ± 1.0 | 
3 | CN1CC[C@]23c4c5ccc(O)c4O[C@H]2c2ncc(-c4ccc(Cl)c(Cl)c4)cc2C[C@H]3[C@H]1C5 [7j, 5′-(3,4-Dichlorophenyl)-6,7-didehydro-4,5α-epoxy-3-hydroxy-17-methylpyrido[2′,3′:6,7]morphinan] | 3.7 ± 0.14 | 489 ± 164 |  | 25 | 93 ± 4 | 75 | 278 ± 7 |  |  | 63 ± 3 |  |  |  |  |  |  | % nociception @ 300 nmol ([3]; icv, 300 nmol, mouse tail-flick): 44% @ 300 nmol; factor that prevented determining the A50 value ([3]; icv, mouse tail-flick): lack of efficacy; melting point: 184 to 186 °C; maximum percentage inhibition of SNC-80 stimulated [35S]GTP-γ-S binding [16]: 58±3%; Ki [17]: > 1000 nM; maximum inhibition at the κ receptors [6]: 66±6%; IC50 [7]: 74 nM; IC50 [18]: 4770 nM
4 | Oc1ccc2c3c1OC1c4ncc(-c5ccccc5)cc4CC4(O)C(C2)N(CC2CC2)CCC314 (stereo not shown) [2b] |  |  |  |  |  |  |  |  |  |  | 4.7 | 43 ± 6.6 | 0 | 16 | 20 | 3.7 ± 1.0 | Ki [19]: 0.87 ± 0.07 nM; Ki ([13]; read-out: Ki (nM) ± SEM μ, [3H]DAMGO, rat brain membranes): 13.5 ± 1 nM; Ki ([14]; read-out: Ki (nM) ± SEM κ, [3H]U69,593, guinea pig brain membranes): 17.6 ± 1.6 nM
5 | Oc1ccc2c3c1O[C@H]1c4ncc(-c5ccc(Cl)cc5)cc4C[C@@]4(O)[C@@H](C2)N(CC2CC2)CC[C@]314 [2c] |  |  | yes |  |  |  |  | 11.2 ± 0.44 | 0.184 |  | 21 |  |  |  |  |  | % nociception @ 100 nmol ([3]; icv, 100 nmol, mouse tail-flick): 21% @ 100 nmol^f; μ agonist activity in [35S]GTP-γ-S binding [20]: failed to display μ agonist activity; analgesic activity in the tail-flick assay [21]: partial agonist activity; analgesic activity in the acetic acid writhing assay [22]: full agonist activity; μ agonist activity in [35S]GTP-γ-S binding [23]: failed to display μ agonist activity; tolerance to antinociceptive effects [24]: did not produce tolerance
